The values below come from paper PMC7388970 (The Cell Surface, 2020).

Values after ≈ are worked out from the molar mass of the structure shown.

The test system of experiment [1] is J774 cells. Nature of the experiment: MTT assay for cytotoxicity. The class given is cell-based. Conditions: Mus musculus, J774, 24 h, read-out: J-774 (IC50).
In experiment [2] the test system is mycolic acid biosynthesis in M. bovis BCG. The class given is cell-based, Mycobacterium bovis BCG.
Experiment [3] concerns Mycobacterium bovis BCG cells. The class given is cell-based.

For `COc1ccc(C=CC(=O)c2ccccc2)cc1OC` [Compound 1a, 3-(3,4-Dimethoxyphenyl)-1-phenylprop-2-en-1-one], the IC50 in experiment [1] amounted to 50 µg/mL (≈ 186 µM). In experiment [2], the FAMEs entry is recorded as “accumulation of FAMEs in a dose-dependent manner”; the “production of α- and k-MAMEs” value is “dose-dependent decrease”. Moreover, the “proportion of cells showing morphological changes” value in experiment [3] came to 76%.
Regarding `COc1ccc(C=CC(=O)c2cccc(Br)c2)cc1OC` [Compound 1b, 1-(3-Bromophenyl)-3-(3,4-dimethoxyphenyl)prop-2-en-1-one], the IC50 in experiment [1] came out at 25 µg/mL (≈ 72 µM).
In the case of `COc1ccc(C=CC(=O)c2ccccc2Br)cc1OC` [Compound 1c, 1-(2-Bromophenyl)-3-(3,4-dimethoxyphenyl)prop-2-en-1-one], the 50% inhibitory concentration (IC50) in experiment [1] turned out to be 25 µg/mL (≈ 72 µM).
Same read-out and setting: then `COc1ccc(C=CC(=O)c2ccc(Br)cc2)cc1OC` [Compound 1d, 1-(4-Bromophenyl)-3-(3,4-dimethoxyphenyl)prop-2-en-1-one], with 25 µg/mL (≈ 72 µM); and `COc1ccc(C=CC(=O)c2cccc(Cl)c2)cc1OC` [Compound 1e, 1-(3-Chlorophenyl)-3-(3,4-dimethoxyphenyl)prop-2-en-1-one], with 12.5 µg/mL (≈ 41.3 µM).
Turning to `COc1ccc(C=CC(=O)c2ccccc2Cl)cc1OC` [Compound 1f, 1-(2-Chlorophenyl)-3-(3,4-dimethoxyphenyl)prop-2-en-1-one], the IC50 in experiment [1] was found to be 12.5 µg/mL (≈ 41.3 µM).
`COc1ccc(C=CC(=O)c2ccc(Cl)cc2)cc1OC` [Compound 1g, 1-(4-Chlorophenyl)-3-(3,4-dimethoxyphenyl)prop-2-en-1-one]: the half-inhibitory concentration (IC50) in experiment [1] was determined as 12.5 µg/mL (≈ 41.3 µM).
Regarding `COc1ccc(C=CC(=O)c2ccc(C)cc2)cc1OC` [Compound 1j, 3-(3,4-Dimethoxyphenyl)-1-(p-tolyl)prop-2-en-1-one], the IC50 in experiment [1] amounted to 25 µg/mL (≈ 88.5 µM).
For `COc1ccc(C=CC(=O)c2ccc(-c3ccccc3)cc2)cc1OC` [Compound 1k, 1-([1,1'-Biphenyl]-4-yl)-3-(3,4-dimethoxyphenyl)prop-2-en-1-one], the IC50 in experiment [1] is 25 µg/mL (≈ 72.6 µM).
The same measure, in the same setting: then `COc1ccc(C=CC(=O)c2ccccc2C)cc1OC` [Compound 1m, 3-(3,4-Dimethoxyphenyl)-1-(o-tolyl)prop-2-en-1-one], with 25 µg/mL (≈ 88.5 µM).
Regarding `COc1ccc(C=CC(=O)c2ccc([N+](=O)[O-])cc2)cc1OC` [Compound 1n, 3-(3,4-Dimethoxyphenyl)-1-(4-nitrophenyl)prop-2-en-1-one], the half-inhibitory concentration (IC50) in experiment [1] worked out at 50 µg/mL (≈ 160 µM).
